# According to PMC8748870, “Topoisomerase I (TOP1) dynamics: conformational transition from open to closed states” (Nature Communications, 2022):
# Biological target: T1, HsTOP1 (Homo sapiens, UniProt P11387)
# T1 construct: gene TOP1; recombinant human TOP1, wild type, purified from baculovirus expression
# T1 sequence (P11387 2-765): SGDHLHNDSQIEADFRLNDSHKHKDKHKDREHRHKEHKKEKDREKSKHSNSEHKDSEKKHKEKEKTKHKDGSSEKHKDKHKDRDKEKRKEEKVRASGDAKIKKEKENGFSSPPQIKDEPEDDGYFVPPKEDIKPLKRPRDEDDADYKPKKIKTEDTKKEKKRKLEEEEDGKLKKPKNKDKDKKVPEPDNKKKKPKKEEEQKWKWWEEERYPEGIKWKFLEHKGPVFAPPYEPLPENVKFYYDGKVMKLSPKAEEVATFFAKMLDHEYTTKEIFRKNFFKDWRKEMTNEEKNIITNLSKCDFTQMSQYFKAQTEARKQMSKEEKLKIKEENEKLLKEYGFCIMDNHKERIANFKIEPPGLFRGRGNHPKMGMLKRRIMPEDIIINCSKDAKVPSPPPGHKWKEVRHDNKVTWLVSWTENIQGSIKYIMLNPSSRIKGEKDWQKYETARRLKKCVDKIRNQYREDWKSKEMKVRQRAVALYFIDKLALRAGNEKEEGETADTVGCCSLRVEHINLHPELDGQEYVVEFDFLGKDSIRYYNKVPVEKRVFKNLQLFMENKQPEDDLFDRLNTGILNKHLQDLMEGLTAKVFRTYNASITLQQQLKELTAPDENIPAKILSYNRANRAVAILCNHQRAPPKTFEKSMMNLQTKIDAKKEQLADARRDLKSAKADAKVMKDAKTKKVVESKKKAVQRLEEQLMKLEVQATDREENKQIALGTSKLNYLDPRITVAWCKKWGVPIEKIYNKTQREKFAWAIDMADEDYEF
# Experiment: […]-labelled oligonucleotide cleavage assay, denaturing PAGE
# Format: biochemical
# Settings: traps TOP1-DNA cleavage complex; 30-bp DNA, pH 7.5, 5 mM Mg2+, 50 mM KCl, 25 °C
compound,measurement,value
"CC[C@@]1(O)C(=O)OCc2c1cc1n(c2=O)Cc2cc3ccccc3nc2-1 [CPT, camptothecin]",CPT-dependent cleavage bands,incubation of HsTOP1 induced TOP1ccs exclusively in the presence of CPT
